The conditions of data set [1]: solid form, storage over a long period of time; prior-art forms (EP 126587A, EP 256377, US 4,888,344); cited from earlier work.
A short description of data set [2]: stability during storage of the solid form. To be noted: new crystalline form B, compared with non-crystalline form, no data given. The format is physicochemical.

Molecules are shown by their SMILES. Where two headings read alike, the source gives them in different places.

Turning to `C[C@@H](O)[C@H]1C(=O)N2C(C(=O)O)=C(S[C@@H]3CN[C@H](C(=O)N(C)C)C3)[C@H](C)[C@H]12` [Compound A in such crystalline form A, (4R,5S,6S)-3-[[(3S,5S)-5-[(dimethylamino)carbonyl]-3-pyrrolidinyl]thio]-6-[(1R)-1-hydroxyethyl]-4-methyl-7-oxo-1-azabicyclo[3.2.0]hept-2-ene-2-carboxylic acid], the stability during storage entry in data set [1] was “much more stable than in a non-crystalline form”.
For `C[C@@H](O)[C@H]1C(=O)N2C(C(=O)O)=C(S[C@@H]3CN[C@H](C(=O)N(C)C)C3)[C@H](C)[C@H]12` [Compound A in such non-crystalline form, (4R,5S,6S)-3-[[(3S,5S)-5-[(dimethylamino)carbonyl]-3-pyrrolidinyl]thio]-6-[(1R)-1-hydroxyethyl]-4-methyl-7-oxo-1-azabicyclo[3.2.0]hept-2-ene-2-carboxylic acid], the stability during storage result in data set [1] is “not sufficiently stable”.
As for `C[C@@H](O)[C@H]1C(=O)N2C(C(=O)O)=C(S[C@@H]3CN[C@H](C(=O)N(C)C)C3)[C@H](C)[C@H]12` [Compound A in a new crystalline form B, (4R,5S,6S)-3-[[(3S,5S)-5-[(dimethylamino)carbonyl]-3-pyrrolidinyl]thio]-6-[(1R)-1-hydroxyethyl]-4-methyl-7-oxo-1-azabicyclo[3.2.0]hept-2-ene-2-carboxylic acid], the stability during storage entry in data set [2] was “stable for storage”; in data set [2] (listed as crystalline carbapenem compound of the present invention), “much more stable than carbapenem compound in a non-crystalline form”.

These data come from patent publication US20090216010A1, “CRYSTALLINE CARBAPENEM COMPOUND AND PRODUCED METHOD THEREOF” (priority 2008, published 2009).
